Experimental data reported in the NIST ThermoML archive (doi:10.1016/j.fluid.2013.07.010).
± gives the expanded uncertainty stated by the source.

Columns and labels:
[1] = Molar enthalpy of transition or fusion; details: Crystal; DSC
[2] = Crystal; DTA

Q: Which “Molar enthalpy of transition or fusion” value [1] does the source give for Nc1ccc(Oc2ccc(N)cc2)cc1 [4,4'-diaminodiphenyl ether] here?
A: 9.05 ± 0.406 kcal/mol

Q: What about the Normal melting temperature [2] of the same compound?
A: 189.52 ± 0.39 °C
